Data on one compound can be found in US6414158B1, “1,3,4-oxadiazine derivatives and their use as pesticides” (Bayer AKtiengesellschaft, priority 1996, dated 2002).

Structures are written as SMILES.

As usually defined, the melting point is the temperature of the solid-liquid transition. `CCN1C(=O)OCC(=O)N1Cc1ccc(Cl)nc1` [Example I-16, 4-(2-chloro-5-pyridylmethyl)-3-ethyl-1,3,4-oxadiazine-2,5-dione] displayed a melting point of 125 to 128 °C.
